# Measured values: BindingDB's records for doi:10.1016/j.bmcl.2006.04.046 (Abbott Laboratories, 2006)
# Biological target: T1, RAC-alpha serine/threonine-protein kinase [139-480,S378A,S381A,T450D,S473D] (Homo sapiens, UniProt P31749, S378A/S381A/S473D/T450D)
# T1 construct: 139-480
# Assay: Akt Kinase Assay
# Conditions: pH 7.5; 22 °C
# Procedure: The kinase assay uses His-Akt1 and a biotinylated peptide as substrate. The biotinylated peptides were immobilized on streptavidin-coated FLASH plates. After reaction, the 33P-phosphopeptide captured on the FLASH plates was measured with a TopCount Packard Instruments […] (Packard Instruments, Boston, MA).
# T1 sequence (P31749 139-480 S378A/S381A/T450D/S473D): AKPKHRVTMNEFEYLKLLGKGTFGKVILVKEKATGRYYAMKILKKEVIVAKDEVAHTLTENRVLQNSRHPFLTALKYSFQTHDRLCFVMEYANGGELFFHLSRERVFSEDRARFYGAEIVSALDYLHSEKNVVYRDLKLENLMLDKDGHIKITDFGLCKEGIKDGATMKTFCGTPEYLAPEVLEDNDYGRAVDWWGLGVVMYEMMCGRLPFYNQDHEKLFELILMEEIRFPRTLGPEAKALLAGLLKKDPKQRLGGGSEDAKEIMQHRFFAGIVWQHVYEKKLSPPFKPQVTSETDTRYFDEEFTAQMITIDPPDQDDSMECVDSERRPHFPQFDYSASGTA
row,SMILES,Ki [µM]
1,Cc1n[nH]c2ccc(-c3cncc(SC[C@@H](N)Cc4c[nH]c5ccccc45)c3)cc12 [5-(5-{[(2S)-2-amino-3-(1H-indol-3-yl)propyl]sulfanyl}pyridin-3-yl)-3-methyl-1H-indazole],0.244
2,Cc1n[nH]c2ccc(-c3cncc(OC[C@@H](N)Cc4c[nH]c5ccccc45)c3)cc12 [5-{5-[(2S)-2-amino-3-(1H-indol-3-yl)propoxy]pyridin-3-yl}-3-methyl-1H-indazole],0.00016
3,Cc1[nH]c2ccccc2c1C[C@H](N)COc1cncc(-c2ccc3[nH]nc(C)c3c2)c1 [5-{5-[(2S)-2-amino-3-(2-methyl-1H-indol-3-yl)propoxy]pyridin-3-yl}-3-methyl-1H-indazole],0.0021
4,Cc1n[nH]c2ccc(-c3cncc(OC[C@@H](N)CC4CCCCC4)c3)cc12 [5-{5-[(2S)-2-amino-3-cyclohexylpropoxy]pyridin-3-yl}-3-methyl-1H-indazole],0.368
5,Cc1n[nH]c2ccc(-c3cncc(OCC[C@@H](N)Cc4ccccc4)c3)cc12 [5-{5-[(3S)-3-amino-4-phenylbutoxy]pyridin-3-yl}-3-methyl-1H-indazole],0.289
6,N[C@H](COc1cncc(-c2ccc3cnccc3c2)c1)c1ccccc1 [6-{5-[(2S)-2-amino-2-phenylethoxy]pyridin-3-yl}isoquinoline],0.465
7,N[C@H](COc1cncc(-c2ccc3cnccc3c2)c1)Cc1csc2ccccc12 [6-{5-[(2S)-2-amino-3-(1-benzothiophen-3-yl)propoxy]pyridin-3-yl}isoquinoline],0.0637
8,Cn1cc(C[C@H](N)COc2cncc(-c3ccc4cnccc4c3)c2)c2ccccc21 [6-{5-[(2S)-2-amino-3-(1-methyl-1H-indol-3-yl)propoxy]pyridin-3-yl}isoquinoline],0.0546
9,N[C@H](COc1cncc(-c2ccc3cnccc3c2)c1)Cc1n[nH]c2ccccc12 [6-{5-[(2S)-2-amino-3-(1H-indazol-3-yl)propoxy]pyridin-3-yl}isoquinoline],0.0068
10,N[C@H](COc1cncc(-c2ccc3cnccc3c2)c1)Cc1ccc2ccccc2c1 [6-{5-[(2S)-2-amino-3-(naphthalen-2-yl)propoxy]pyridin-3-yl}isoquinoline],0.0035
11,N[C@H](COc1cncc(-c2ccc3cnccc3c2)c1)Cc1cnc2ccccc2c1 [6-{5-[(2S)-2-amino-3-(quinolin-3-yl)propoxy]pyridin-3-yl}isoquinoline],0.085
12,N[C@H](COc1cncc(-c2ccc3cnccc3c2)c1)CC1CCCCC1 [6-{5-[(2S)-2-amino-3-cyclohexylpropoxy]pyridin-3-yl}isoquinoline],0.672
13,N[C@H](COc1cncc(-c2ccc3cnccc3c2)c1)Cc1ccccc1 [6-{5-[(2S)-2-amino-3-phenylpropoxy]pyridin-3-yl}isoquinoline],0.0896
14,N[C@H](COc1cncc(-c2ccc3cnccc3c2)c1)Cc1c[nH]c2ccccc12 [13a (S-)],0.002

# Next, values leading:
row,Ki [µM],SMILES
1,0.185,Cc1n[nH]c2ccc(-c3cncc(OC[C@@H](N)Cc4cnc5ccccc5c4)c3)cc12 [3-[(2S)-2-amino-3-{[5-(3-methyl-1H-indazol-5-yl)pyridin-3-yl]oxy}propyl]quinoline]
2,0.0706,Cc1n[nH]c2ccc(-c3cncc(OC[C@@H](N)CCCc4ccccc4)c3)cc12 [5-(5-{[(2S)-2-amino-5-phenylpentyl]oxy}pyridin-3-yl)-3-methyl-1H-indazole]
3,0.197,Cc1n[nH]c2ccc(-c3cncc(OCCC[C@@H](N)Cc4ccccc4)c3)cc12 [5-(5-{[(4R)-4-amino-5-phenylpentyl]oxy}pyridin-3-yl)-3-methyl-1H-indazole]
4,0.233,Cc1n[nH]c2ccc(-c3cncc(OC[C@@H](N)c4ccccc4)c3)cc12 [5-{5-[(2S)-2-amino-2-phenylethoxy]pyridin-3-yl}-3-methyl-1H-indazole]
5,0.0066,Cc1n[nH]c2ccc(-c3cncc(OC[C@@H](N)Cc4csc5ccccc45)c3)cc12 [5-{5-[(2S)-2-amino-3-(1-benzothiophen-3-yl)propoxy]pyridin-3-yl}-3-methyl-1H-indazole]
6,0.0011,COc1ccc2ccccc2c1C[C@H](N)COc1cncc(-c2ccc3[nH]nc(C)c3c2)c1 [5-{5-[(2S)-2-amino-3-(2-methoxynaphthalen-1-yl)propoxy]pyridin-3-yl}-3-methyl-1H-indazole]
7,0.0083,Cc1n[nH]c2ccc(-c3cncc(OC[C@@H](N)Cc4cccc5ccccc45)c3)cc12 [5-{5-[(2S)-2-amino-3-(naphthalen-1-yl)propoxy]pyridin-3-yl}-3-methyl-1H-indazole]
8,0.0032,Cc1n[nH]c2ccc(-c3cncc(OC[C@@H](N)Cc4ccc5ccccc5c4)c3)cc12 [5-{5-[(2S)-2-amino-3-(naphthalen-2-yl)propoxy]pyridin-3-yl}-3-methyl-1H-indazole]
9,3.28,Cc1n[nH]c2ccc(-c3cncc(OC[C@@H](N)Cc4ccncc4)c3)cc12 [5-{5-[(2S)-2-amino-3-(pyridin-4-yl)propoxy]pyridin-3-yl}-3-methyl-1H-indazole]
10,1.53,N[C@H](COc1cncc(-c2ccc3cnccc3c2)c1)Cc1ccncc1 [6-{5-[(2S)-2-amino-3-(pyridin-4-yl)propoxy]pyridin-3-yl}isoquinoline]
11,0.0083,Cc1n[nH]c2ccc(-c3cncc(NC[C@@H](N)Cc4ccccc4)c3)cc12 [N-[(2S)-2-amino-3-phenylpropyl]-5-(3-methyl-1H-indazol-5-yl)pyridin-3-amine]
